This passage reports IC50 results from patent US12473304B2, “Heterocyclic PAD4 inhibitors” (BRISTOL-MYERS SQUIBB COMPANY, priority 2020, dated 2025).

human PAD4 (hPAD4), sequence (Q9UM07 whole entry): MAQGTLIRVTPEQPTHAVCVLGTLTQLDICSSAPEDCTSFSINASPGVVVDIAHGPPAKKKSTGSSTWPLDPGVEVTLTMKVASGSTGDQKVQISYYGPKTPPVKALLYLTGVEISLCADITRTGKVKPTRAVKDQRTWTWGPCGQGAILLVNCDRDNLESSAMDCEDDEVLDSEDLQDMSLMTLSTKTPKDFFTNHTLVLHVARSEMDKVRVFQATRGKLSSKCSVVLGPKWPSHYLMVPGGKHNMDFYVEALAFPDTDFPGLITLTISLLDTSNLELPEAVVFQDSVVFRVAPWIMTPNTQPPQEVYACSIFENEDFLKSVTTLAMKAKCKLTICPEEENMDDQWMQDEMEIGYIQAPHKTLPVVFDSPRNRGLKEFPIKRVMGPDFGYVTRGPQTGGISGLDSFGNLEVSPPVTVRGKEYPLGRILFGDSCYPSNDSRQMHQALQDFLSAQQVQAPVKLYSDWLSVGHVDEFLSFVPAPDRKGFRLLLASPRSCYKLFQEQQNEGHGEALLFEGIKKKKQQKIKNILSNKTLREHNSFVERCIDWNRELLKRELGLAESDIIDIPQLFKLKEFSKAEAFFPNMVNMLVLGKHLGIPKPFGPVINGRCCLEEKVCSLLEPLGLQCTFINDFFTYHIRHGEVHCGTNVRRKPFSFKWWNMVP

This assay concerns the target human PAD4 (hPAD4) (Homo sapiens (Human), UniProt Q9UM07). Briefly: RFMS Human PAD4 Functional Assay 1. The assay is classed as biochemical. The note with it: RFMS assay 1; 5 nM hPAD4, 250 μM BAEE substrate, 50 μM calcium, 37° C. The essentials:
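Citrullination product read by RapidFire triple-quad MRM against a modified-citrulline internal standard, after TCA stop and 30 min phenyl glyoxal step at 37 °C. Reaction: 250 μM BAEE, 5 nM human PAD4, 90 min at 37 °C, pH 7.5 HEPES buffer with 50 μM calcium and 5 μM TPEN, following 30 min compound–enzyme preincubation (max 50 μM).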
As to `Cc1c(-c2cc3cccc(OCCn4ccnc4)c3n2CC2CC2)nn2cc(C(=O)N3C[C@H](N)C[C@@H](F)C3)ccc12` [Example 574, (2-(7-(2-(1H-Imidazol-1-yl)ethoxy)-1-(cyclopropylmethyl)-1H-indol-2-yl)-3-methylpyrazolo[1,5-a]pyridin-6-yl)((3R,5R)-3-amino-5-fluoropiperidin-1-yl)methanone], the IC50 worked out at 20 nM.
Then `Cc1c(-c2cc3ccc(-c4ccc5[nH]ncc5c4)nc3n2CC2CC2)nn2cc(C(=O)N3CC4CCC3[C@@H]4N)ccc12` (stereo partly drawn) [Example 300, (7R)-2-{2-[1-(Cyclopropylmethyl)-6-(1H-indazol-5-yl)-1H-pyrrolo[2,3-b]pyridin-2-yl]-3-methylpyrazolo[1,5-a]pyridine-6-carbonyl}-2-azabicyclo[2.2.1]heptan-7-amine], with 100 nM.
The value for `Cc1c(-c2ccc3cc(-c4nn5cc(C(=O)N6CCC[C@@H](N)C6)ccc5c4C)n(CC4CC4)c3c2)cc(F)c2[nH]c(=O)ccc12` [Example 346, 6-(2-{6-[(3R)-3-Aminopiperidine-1-carbonyl]-3-methylpyrazolo[1,5-a]pyridin-2-yl}-1-(cyclopropylmethyl)-1H-indol-6-yl)-8-fluoro-5-methyl-1,2-dihydroquinolin-2-one] was 60 nM.
With `COc1cc(C(=O)N2CCC[C@@H](N)C2)cn2nc(-c3cc4cccc(C5CCN(C(=O)C6CC(O)(C(F)(F)F)C6)CC5)c4n3CC3CC3)c(C)c12` (mixture of isomers) [Example 398, (R)-(3-Aminopiperidin-1-yl)(2-(1-(cyclopropylmethyl)-7-(1-(3-hydroxy-3-(trifluoromethyl)cyclobutane-1-carbonyl)piperidin-4-yl)-1H-indol-2-yl)-4-methoxy-3-methylpyrazolo[1,5-a]pyridin-6-yl)methanone], the IC50 is 40 nM.
Then `COC(C)(C)C(=O)N1CCC(c2cc(F)cc3cc(-c4nn5cc(C(=O)N6C[C@H](N)C[C@@H](F)C6)ccc5c4C)n(CC4CC4)c23)CC1` [Example 501, 1-(4-(2-(6-((3R,5R)-3-Amino-5-fluoropiperidine-1-carbonyl)-3-methylpyrazolo[1,5-a]pyridin-2-yl)-1-(cyclopropylmethyl)-5-fluoro-1H-indol-7-yl)piperidin-1-yl)-2-methoxy-2-methylpropan-1-one], with 130 nM; and `COc1cc(C(=O)N2CCC[C@@H](N)C2)cn2nc(-c3cc4ccc(-c5ccc(C(N)=O)cc5)cc4n3CC3CC3)c(C)c12` [Example 229, 4-(2-{6-[(3R)-3-Aminopiperidine-1-carbonyl]-4-methoxy-3-methylpyrazolo[1,5-a]pyridin-2-yl}-1-(cyclopropylmethyl)-1H-indol-6-yl)benzamide], with 130 nM.
`Cc1c(-c2cc3cccc(C4CN(C(=O)[C@@H]5CCC[C@H](O)C5)C4)c3n2CC2CC2)nn2cc(C(=O)N3CCC[C@@H](N)C3)ccc12` [Example 532, ((R)-3-Aminopiperidin-1-yl)(2-(1-(cyclopropylmethyl)-7-(1-((1R,3S)-3-hydroxycyclohexane-1-carbonyl)azetidin-3-yl)-1H-indol-2-yl)-3-methylpyrazolo[1,5-a]pyridin-6-yl)methanone]: the concentration for half-maximal inhibition (IC50) came out at 1010 nM.
Then `Cc1c(-c2cc3cccc(OCCn4cncn4)c3n2CC2CC2)nn2cc(C(=O)N3CCC[C@@H](N)C3)ccc12` [Example 580, (R)-(2-(7-(2-(1H-1,2,4-Triazol-1-yl)ethoxy)-1-(cyclopropylmethyl)-1H-indol-2-yl)-3-methylpyrazolo[1,5-a]pyridin-6-yl)(3-aminopiperidin-1-yl)methanone], with 60 nM; and `Cc1c(-c2cc3ccc(-c4ccc(C(N)=O)c(F)c4)nc3n2CC2CC2)nn2cc(C(=O)N3C[C@H](N)C[C@@H](F)C3)cc(F)c12` [Example 56, 4-(2-(6-((3R,5R)-3-Amino-5-fluoropiperidine-1-carbonyl)-4-fluoro-3-methylpyrazolo[1,5-a]pyridin-2-yl)-1-(cyclopropylmethyl)-1H-pyrrolo[2,3-b]pyridin-6-yl)-2-fluorobenzamide], with 468 nM.
Then `Cc1c(-c2cc3ccnc(OCCn4ccnc4)c3n2CC2CC2)nn2cc(C(=O)N3CCC[C@@H](N)C3)ccc12` [Example 617, (R)-(2-(7-(2-(1H-lmidazol-1-yl)ethoxy)-1-(cyclopropylmethyl)-1H-pyrrolo[2,3-c]pyridin-2-yl)-3-methylpyrazolo[1,5-a]pyridin-6-yl)(3-aminopiperidin-1-yl)methanone], with 10 nM; and `Cc1c(-c2cc3ccnc(OCCn4cncn4)c3n2CC2CC2)nn2cc(C(=O)N3C[C@H](N)C[C@@H](F)C3)ccc12` [Example 610, (2-(7-(2-(1H-1,2,4-Triazol-1-yl)ethoxy)-1-(cyclopropylmethyl)-1H-pyrrolo[2,3-c]pyridin-2-yl)-3-methylpyrazolo[1,5-a]pyridin-6-yl)((3R,5R)-3-amino-5-fluoropiperidin-1-yl)methanone], with 430 nM; and `COC(=O)N(C)C1CCN(c2ccc3cc(-c4nn5cc(C(=O)N6C[C@H](N)C[C@@H](F)C6)ccc5c4C)n(CC4CC4)c3n2)CC1` [Example 325, Methyl N-[1-(2-{6-[(3R,5R)-3-amino-5-fluoropiperidine-1-carbonyl]-3-methylpyrazolo[1,5-a]pyridin-2-yl}-1-(cyclopropylmethyl)-1H-pyrrolo[2,3-b]pyridin-6-yl)piperidin-4-yl]-N-methylcarbamate], with 1540 nM.
Then `Cc1c(-c2cc3cccc(C4CCN(C(=O)C5CC(O)(C(F)(F)F)C5)CC4)c3n2CC2CC2)nn2cc(C(=O)N3CCC[C@@H](N)C3)cc(F)c12` (mixture of isomers) [Example 422, (R)-(3-Aminopiperidin-1-yl)(2-(1-(cyclopropylmethyl)-7-(1-(3-hydroxy-3-(trifluoromethyl)cyclobutane-1-carbonyl)piperidin-4-yl)-1H-indol-2-yl)-4-fluoro-3-methylpyrazolo[1,5-a]pyridin-6-yl)methanone], with 400 nM; and `CC(=O)N1CCC(c2cc(F)cc3cc(-c4nn5cc(C(=O)N6C[C@H](N)C[C@@H](F)C6)ccc5c4C)n(CC4CC4)c23)CC1` [Example 507, 1-(4-(2-(6-((3R,5R)-3-Amino-5-fluoropiperidine-1-carbonyl)-3-methylpyrazolo[1,5-a]pyridin-2-yl)-1-(cyclopropylmethyl)-5-fluoro-1H-indol-7-yl)piperidin-1-yl)ethan-1-one], with 170 nM.
In the case of `Cc1c(-c2cc3ccc(-c4ccc(C(N)=O)c(F)c4)nc3n2CC2CC2)nn2cc(C(=O)N3CC4CCC3[C@@H]4N)ccc12` (stereo partly drawn) [Example 69, 4-(2-(6-((7R)-7-Amino-2-azabicyclo[2.2.1]heptane-2-carbonyl)-3-methylpyrazolo[1,5-a]pyridin-2-yl)-1-(cyclopropylmethyl)-1H-pyrrolo[2,3-b]pyridin-6-yl)-2-fluorobenzamide], the IC50 amounted to 19 nM.
For the compound `COc1cc(C(=O)N2C[C@H](N)C[C@@H](F)C2)cn2nc(-c3cc4ccc(C(C)(C)O)cc4n3CC3CC3)c(C)c12` [Example 98, ((3R,5R)-3-Amino-5-fluoropiperidin-1-yl)(2-(1-(cyclopropylmethyl)-6-(2-hydroxypropan-2-yl)-1H-indol-2-yl)-4-methoxy-3-methylpyrazolo[1,5-a]pyridin-6-yl)methanone], the IC50 is 14 nM.
Then `COc1cc(C(=O)N2CC3CCC2[C@@H]3N)cc2sc(-c3cc4ccc(N5CCC(OC)CC5)nc4n3CC3CC3)c(C)c12` (stereo partly drawn) [Example 137, ((7R)-7-Amino-2-azabicyclo[2.2.1]heptan-2-yl)(2-(1-(cyclopropylmethyl)-6-(4-methoxypiperidin-1-yl)-1H-pyrrolo[2,3-b]pyridin-2-yl)-4-methoxy-3-methylbenzo[b]thiophen-6-yl)methanone], with 71 nM; and `COc1cc(C(=O)N2C[C@H](N)C[C@@H](F)C2)cn2nc(-c3cc4ccc(-c5cc(F)c6[nH]c(=O)ccc6c5C)cc4n3CC3CC3)c(C)c12` [Example 225, 6-(2-{6-[(3R,5R)-3-Amino-5-fluoropiperidine-1-carbonyl]-4-methoxy-3-methylpyrazolo[1,5-a]pyridin-2-yl}-1-(cyclopropylmethyl)-1H-indol-6-yl)-8-fluoro-5-methyl-1,2-dihydroquinolin-2-one], with 80 nM.
Then `CO[C@H](C)C(=O)N1CCC(c2cccc3cc(-c4nn5cc(C(=O)N6CCC[C@@H](N)C6)ccc5c4C)n(CC4CC4)c23)CC1` [Example 460, (R)-1-(4-(2-(6-((R)-3-aminopiperidine-1-carbonyl)-3-methylpyrazolo[1,5-a]pyridin-2-yl)-1-(cyclopropylmethyl)-1H-indol-7-yl)piperidin-1-yl)-2-methoxypropan-1-one], with 70 nM; and `Cc1c(-c2cc3cccc(OCC4CNC(=O)C4)c3n2CC2CC2)nn2cc(C(=O)N3CCC[C@@H](N)C3)cc(F)c12` (single isomer, unassigned) [Example 566], with 10 nM.
Then `Cc1c(-c2cc3ccc(-c4cccc(CO)c4)cc3n2CC2CC2)nn2cc(C(=O)N3C[C@H](N)C[C@@H](F)C3)ccc12` [Example 371, [3-(2-{6-[(3R,5R)-3-Amino-5-fluoropiperidine-1-carbonyl]-3-methylpyrazolo[1,5-a]pyridin-2-yl}-1-(cyclopropylmethyl)-1H-indol-6-yl)phenyl]methanol], with 1070 nM.
Regarding `COc1cc(C(=O)N2CC3CCC2[C@@H]3N)cn2nc(-c3cc4ccc(-c5cnn(C(C)C)c5)nc4n3CC3CC3)c(C)c12` (stereo partly drawn) [Example 7, ((7R)-7-Amino-2-azabicyclo[2.2.1]heptan-2-yl)(2-(1-(cyclopropylmethyl)-6-(1-isopropyl-1H-pyrazol-4-yl)-1H-pyrrolo[2,3-b]pyridin-2-yl)-4-methoxy-3-methylpyrazolo[1,5-a]pyridin-6-yl)methanone], the IC50 was found to be 412 nM.

For orientation: IC50 means the concentration at which inhibition is half-maximal.
